Structures can show the parent of a compound that is named as a salt.
Key:
[1] = system: maltose/trehalose converting enzymes; details: one mM; cited from earlier work
α-glucosidase from yeast = α-glucosidase from yeast (Saccharomyces cerevisiae, UniProt P53341); test: Hydrolysis by enzyme: α-glucosidase; type: biochemical; details: into glucose and fructose
Description: (§1) To identify the substance "X", the following confirmation tests were conducted using a high purity saccharide powder containing trehalulose prepared in Experiment 8: […]

[2] = in vivo, po
Description: In accordance with the method as reported by H. Atsuji et al. in "Journal of Clinical Nutrition", Vol.41, No.2, pp.200-208 (1972), 30 g of the saccharide powder rich in trehalulose with a purity of 98%, d.s.b., in Experiment 8 was prepared into a 20 w/v % aqueous solution which was then orally administered to 3 healthy male volunteers, and their blood were sampled at a prescribed time interval, followed by assaying the blood sugar- and insulin-levels. As a control glucose was used.

invertase from yeast = target: T1, invertase from yeast (Saccharomyces cerevisiae, UniProt P00724); test: Hydrolysis by enzyme: invertase; type: biochemical
T1 sequence (P00724 20-532): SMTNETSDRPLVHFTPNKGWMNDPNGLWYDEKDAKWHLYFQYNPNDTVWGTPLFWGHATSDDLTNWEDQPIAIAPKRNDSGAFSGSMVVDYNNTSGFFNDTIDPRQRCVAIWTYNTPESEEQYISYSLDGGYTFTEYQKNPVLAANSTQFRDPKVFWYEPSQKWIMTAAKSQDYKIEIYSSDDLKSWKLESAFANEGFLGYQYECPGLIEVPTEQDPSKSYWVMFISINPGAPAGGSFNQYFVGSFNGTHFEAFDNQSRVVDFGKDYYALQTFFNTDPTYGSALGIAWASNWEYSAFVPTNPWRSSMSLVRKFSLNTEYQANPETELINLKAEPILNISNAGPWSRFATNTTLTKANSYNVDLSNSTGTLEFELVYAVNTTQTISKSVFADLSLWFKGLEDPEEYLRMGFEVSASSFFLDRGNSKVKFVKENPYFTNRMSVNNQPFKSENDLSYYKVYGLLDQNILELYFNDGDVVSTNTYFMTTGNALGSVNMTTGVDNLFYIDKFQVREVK
Description: as §1

dd-strain mice = test: Acute toxicity test; type: in vivo; details: oral, 7-week-old, higher dose test impossible
Excerpt: No mouse died up to a dose of 15 g/kg mouse by weight and a higher dose test was impossible. Thus the toxicity of the saccharide is extremely low.

Sequence of α-glucosidase from yeast (P53341 whole entry): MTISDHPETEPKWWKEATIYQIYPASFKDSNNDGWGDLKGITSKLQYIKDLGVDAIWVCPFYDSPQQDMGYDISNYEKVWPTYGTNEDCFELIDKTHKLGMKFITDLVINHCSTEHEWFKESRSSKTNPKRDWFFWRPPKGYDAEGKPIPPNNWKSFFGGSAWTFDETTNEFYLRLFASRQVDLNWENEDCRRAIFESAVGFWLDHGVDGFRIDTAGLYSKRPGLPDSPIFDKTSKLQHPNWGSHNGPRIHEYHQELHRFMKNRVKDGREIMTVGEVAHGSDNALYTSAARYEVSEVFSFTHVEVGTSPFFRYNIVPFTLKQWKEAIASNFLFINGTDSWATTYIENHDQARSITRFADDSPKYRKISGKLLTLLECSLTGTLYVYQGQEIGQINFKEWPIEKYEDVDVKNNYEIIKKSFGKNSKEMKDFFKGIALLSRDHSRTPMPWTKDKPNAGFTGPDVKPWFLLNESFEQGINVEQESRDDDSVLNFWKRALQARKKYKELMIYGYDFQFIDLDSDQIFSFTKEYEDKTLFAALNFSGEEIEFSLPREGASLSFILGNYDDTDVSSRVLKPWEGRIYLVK

Structure (SMILES): [Cu+2] [Cu^++]
- Inhibition of enzyme activity [1]: inhibited

Structure (SMILES): [Hg+2] [Hg^++]
- Inhibition of enzyme activity [1]: inhibited

Structure (SMILES): O=C(CO[C@H]1O[C@H](CO)[C@@H](O)[C@H](O)[C@H]1O)[C@@H](O)[C@H](O)[C@H](O)CO [Trehalulose, 1-O-α-D-glucopyranosyl-D-fructose]
- Hydrolysis by α-glucosidase from yeast (α-glucosidase from yeast): Hydrolyzed
- Time of highest blood sugar-level after the administration [2]: 0.5 to 1 h
- Time of highest insulin-level after the administration [2]: 0.5 to 1 h
- Hydrolysis by an invertase from yeast (invertase from yeast): Not hydrolyzed
- Acute toxicity: lethal dose (no mouse died up to this dose) (dd-strain mice): > 15000 mg/kg

Structure (SMILES): NC(CO)(CO)CO [Tris-HCl buffer]
- Inhibition of enzyme activity [1]: inhibited
